Here are results for two molecules from patent publication US20080207731A1, “3-(3-INDOLYL) PROPIONIC ACID CALCIUM SALT AND METHOD OF MAKING 3-(3-INDOLYL) PROPIONIC ACID FREE ACID THEREFROM” (Intellect Neurosciences, Inc., priority 2006, published 2008).

Series [1] in a line: solubility in water of 3-IPA salts. Type of series: physicochemical.
Another series has as its system cultured neurons. Particulars: background statement; cited from earlier work.

Counter-ions that a name gives are not always drawn.

Regarding `O=C(O)CCc1c[nH]c2ccccc12` [3-IPA calcium, calcium salt of 3-(3-indolyl)propionic acid], the solubility in water entry in series [1] (compared to the calcium salts of other acids present in the reaction mixture (e.g., acrylic acid or acetic acid)) is on record as “much less soluble in water”. Moreover, the solubility result in series [1] (compared to the free acid form of 3-IPA) is “low solubility”.

`O=C(O)CCc1c[nH]c2ccccc12` [3-IPA, 3-(3-indolyl)propionic acid]: in the series on cultured neurons, the “protection from toxicity of the Aβ peptide” value is listed as “protect cultured neurons from the toxicity of the Aβ peptide”.
